Assay results: the SangsterLogP compilation

Point of comparison: `O=C(O)c1c(Cl)ccc(Cl)c1Cl`, logP 4.34. Against it:
- CCC(C)n1c(=O)[nH]c(C)c(Br)c1=O (centres undefined) — lower, 1.33
- Nc1cc(Cl)cc(C(=O)O)c1Cl — lower, 1.46
- CC(Cl)(Cl)C(=O)O — lower, 1.34
- COC(=O)C=C(C)OP(=O)(OC)OC — lower, 0.55
- CCCN(CC1CC1)c1c([N+](=O)[O-])cc(C(F)(F)F)cc1[N+](=O)[O-] — higher, 5.16
- CCCN(CCC)c1c([N+](=O)[O-])cc(S(C)(=O)=O)cc1[N+](=O)[O-] — higher, 4.78
- CCC(C)Nc1c([N+](=O)[O-])cc(C(C)(C)C)cc1[N+](=O)[O-] (centres undefined) — higher, 4.54
- Cc1[nH]c(=O)n(C(C)(C)C)c(=O)c1Cl — lower, 1.44
- CN(C)C(=O)C(c1ccccc1)c1ccccc1 — lower, 2.17
- CC(C)OC(=O)Nc1cccc(Cl)c1 — lower, 3.42
- Cc1cc(Cl)ccc1OCC(=O)O — lower, 2.69
- CC(C)Nc1nc(Cl)nc(NC(C)C)n1 — lower, 3.09
- ClC1=C(Cl)[C@]2(Cl)C3C(Cl)C(Cl)CC3[C@@]1(Cl)C2(Cl)Cl (some centres undefined) — higher, 5.89
